Experimental data: patent US20050008686A1, “Cochleate preparations of fragile nutrients” (priority 2003, published 2005)
In brackets after ≈: the same amount, converted by molar mass. Where two headings read alike, the source gives them in different places.

Assay: solubility of beta-carotene in potential solvents
Assay type: physicochemical
Settings: for solubility: organic solvent or mixture
Excerpt: The present invention is based, at least in part, on the discovery that one or more solvents such as tetrahydrofuran (THF), can be employed to form an improved cochleate with fragile nutrients such as beta-carotene at desirable concentrations. Suitable solvents and solvent mixtures that can be employed in connection with the present invention and can readily be identified by a person of skill in the art employing the teachings provided herein and knowledge in the art. For example, beta-carotene was added to a variety of potential solvents, and was found not soluble in either water or DMSO, and slightly soluble in methyl pyrrolidone (less than 1 mg/ml). Heptane also was considered, but heptane is not miscible with water and thus cannot readily be employed in the formation of cochleates. […] Similarly, solvents can be identified for other fragile nutrients and lipids in accordance with the present invention.

- solubility (solvent methyl pyrrolidone, slightly soluble, read-out: solubility in methyl pyrrolidone): < 1000 µg/mL
- solubility (solvent tetrahydrofuran (THF), read-out: solubility in THF): 10000 µg/mL (≈ 18.6 mM)
- solubility in DMSO (solvent DMSO): not soluble
- solubility in water (solvent water): not soluble
SMILES: CC1=C(/C=C/C(C)=C/C=C/C(C)=C/C=C/C=C(C)/C=C/C=C(C)/C=C/C2=C(C)CCCC2(C)C)C(C)(C)CCC1 [beta-carotene]
